Laboratory results published in paper PMC5841303, “In silico screening for human norovirus antivirals reveals a novel non-nucleoside inhibitor of the viral polymerase” (Scientific Reports, 2018).

Legend:
[1] = target: T1, human norovirus Sydney 2012 RdRp (Norovirus GII.4 (Norwalk virus, human norovirus), UniProt K4L8Z7); assay: Fluorescent de novo RdRp activity assay (PicoGreen, poly(C) template); type: biochemical
Description: The 62 compounds identified in silico were screened for inhibition of norovirus RdRp activity using an in vitro fluorescent, de novo RdRp assay. Compounds were tested at fixed concentrations of 10 µM and 100 µM, and compared to mock treated samples containing the vehicle only (0.5% DMSO [vol/vol]) (Fig. 4A,B). […] For certain compounds, significant insolubility was observed, coupled with either inherent fluorescence quenching (positive y-axis values on Fig. 4A,B) or enhancement of the fluorescence signal (negative y-axis values).
The newly synthesised compounds, including the re-prepared hit 13 and some synthesis intermediates (Table 1), were initially evaluated on norovirus Sydney 2012 RdRp activity in vitro using a quantitative fluorescent assay. Compounds were tested at a fixed concentration of 10 μM and compared to the relative activity of mock treated samples.
Recombinant calicivirus RdRps (GenBank accession numbers) norovirus GII.Pe/GII.4 Sydney 2012 (KT239579), MNV GV CW1 (DQ285629), RHDV Czech V351 (KF594473.1), and SaV GI.1 Mc114 (AY237422) were expressed and purified as described previously[60],[61]. RdRp resistance mutants were generated using the QuikChange site-directed mutagenesis kit (Agilent Technologies, Santa Clara, CA, USA) and confirmed by Sanger sequencing.
(§1) Fluorescent RdRp activity assays were carried out as previously described[14],[62]. Briefly, RdRp activity was quantified by monitoring the formation of double-stranded RNA (dsRNA) from a single stranded homopolymeric template, poly(C) (Sigma Aldrich, St Louis, MO, USA), using the fluorescent dye PicoGreen (Life Technologies, Carlsbad, CA, USA). RdRp assays were performed in 384-well plates, and each reaction mixture contained 400 ng enzyme, 45 µM GTP, 10 ng/µL poly(C) RNA, 2.5 mM MnCl2, 5 mM dithiothreitol, (DTT), 0.01% bovine serum albumin (BSA), and 0.005% Tween 20 in 20 mM Tris-HCl, pH 7.5, with a final reaction volume of 25 µL. The previous published norovirus NNI NIC02 was used as a positive control. RdRps were incubated for 10 mins at 30 °C in the presence of the test compounds or the compound vehicle DMSO (0.5% vol/vol) before addition into the reaction mixture, which was then allowed to run 15 min at 30 °C then terminated with 10 mM EDTA, followed by PicoGreen staining and dsRNA quantitation. GraphPad Prism V6.05 (La Jolla, CA, USA) was used to plot the IC50 values. In cases where fluorescent enhancement was recorded for a compound instead of inhibition, a secondary gel-based polymerase activity assay was used as a counter-screen as described below, to exclude the possibility of RdRp activity enhancement (Supplementary Fig. S1). Primed elongation activity was examined in a gel-based assay as previously described[16],[63] using the RNA template (PE44-NoV, Fig. 4D). Gels were imaged using BioRad (Hercules, CA, U.SA) Geldoc Universal Hood II, running BioRad Image Lab software, V4.1, build 16. Antagonism was calculated using Compusyn software V1.0[59]. 54 and PPNDS (4:1 ratio) were tested alone and together against norovirus Sydney 2012 RdRp.

[2] = target: T1, human norovirus Sydney 2012 RdRp; assay: Combinational study of 54 and PPNDS (Compusyn combination index); type: biochemical; conditions: 54 with PPNDS, 4:1 ratio
Description: Despite the minimal activity in the cell culture system, RdRp inhibition by 54 is an important finding in the search of novel norovirus inhibitors. […] PPNDS (0.025–25 µM) and 54 (0.1–100 µM) were examined alone and together in a 1:4 ratio respectively (Fig. 13A), and the average of the combination indices at 50% (1.6), 75% (1.7) and 90% (1.8) inhibition was 1.7.
as §1

norovirus RdRp = assay: Counter-screen gel-shift RdRp assay (primed elongation of PE44-NoV template); type: biochemical, human norovirus; conditions: fixed concentration of 100 µM
Description: In this assay, a 32 nucleotide RNA template (PE44-NoV) is extended to 44 nucleotides in the presence of an active RdRp[16]. […] Inhibition of primed elongation of the PE44-NoV template was examined at a fixed concentration of 100 µM (Fig. 4D). In the absence of inhibition (0.5% DMSO vehicle only) the RNA template was extended to 44 nucleotides (Fig. 4D), evidenced by an upward gel shift and the appearance of the second, higher band.
as §1

RHDV RdRp = assay: Fluorescent RdRp activity assay, RHDV RdRp; type: biochemical, rabbit haemorrhagic disease virus; conditions: fixed concentration of 100 µM
Excerpt: The antiviral activity of the four compounds (11, 13, 42a and 54) were examined for inhibition of RNA polymerases from other viruses spanning three genera of the Caliciviridae family, including Norovirus (human norovirus and MNV), Lagovirus (rabbit haemorrhagic disease virus [RHDV]) and Sapovirus (human sapovirus). […] The protein sequence of the examined calicivirus polymerases has an identity range between 30.2–61.4%, and therefore the broad-spectrum activity of these compounds could be attributed to a common, highly-conserved binding pocket across the RdRps, as has been previously reported with broad-spectrum activity of other site-B binding NNIs[16]. […]
Fluorescent RdRp activity assays were carried out as previously described[14],[62]. Briefly, RdRp activity was quantified by monitoring the formation of double-stranded RNA (dsRNA) from a single stranded homopolymeric template, poly(C) (Sigma Aldrich, St Louis, MO, USA), using the fluorescent dye PicoGreen (Life Technologies, Carlsbad, CA, USA). […] RdRps were incubated for 10 mins at 30 °C in the presence of the test compounds or the compound vehicle DMSO (0.5% vol/vol) before addition into the reaction mixture, which was then allowed to run 15 min at 30 °C then terminated with 10 mM EDTA, followed by PicoGreen staining and dsRNA quantitation. […] Antagonism was calculated using Compusyn software V1.0[59]. […]

SMILES: O=C1NN(c2ccccc2)C(=O)/C1=C/c1ccc(-c2ccc(S(=O)(=O)Nc3ccccc3)cc2)o1 [Compound 54]
- IC50 [1]: 5.6 µM
- combination index at 50% inhibition [2]: 1.6
- combination index at 75% inhibition [2]: 1.7
- combination index at 90% inhibition [2]: 1.8
- average combination index ([2]; average over 50%, 75% and 90% inhibition): 1.7
- inhibition of primed elongation activity (gel-shift) (norovirus RdRp): near complete abolishment of norovirus RdRp activity
- inhibition of RHDV RdRp activity (RHDV RdRp): 99.0%
